Results: US8466107B2, “Fibrin-binding peptides and conjugates thereof” (Bracco Imaging SpA, priority 2006, dated 2013)
Bridge positions count the residues as written; N and C are the ends. Square brackets hold non-standard residues; d marks the D form. Peptide text beside a SMILES is read from it. * marks the point of attachment. 5FAM = O=C1OC2(c3ccc(O)cc3Oc3cc(O)ccc32)c2ccc(C(=O)*)cc21; Phe(4-F) = N[C@@H](Cc1ccc(F)cc1)C(=O)O; Cha = N[C@@H](CC1CCCCC1)C(=O)O

Target: DDE (fibrin-derived polypeptide) (Homo sapiens, UniProt P02671+P02675+P02679)
Assay: Direct binding fluorescence polarization (FP) assay using 5-carboxyfluorescein labeled peptides
Settings: 20 nM CF5-labeled peptide, serial dilutions of DDE, anisotropy read at 485 nm; read-out: KD (μM) Direct Binding (n = 2)
Method: Assay of Fibrin Binding Peptides by Direct Binding Fluorescence Polarization (FP) Procedure using 5-Carboxyfluoresein Labeled Peptides
Protocol • 1. Prepare 1 mL of 40 nM solution of 5-carboxyfluorescein-labeled peptide in HEPES dilution buffer (HDB) with 0.01% Tween. • HDB (10 mM HEPES, 150 mM […], 2 mM CaCl2) • 2. Dilute the 40 nM solution to obtain 1 ml of a 20 nM solution of the test 5-carboxyfluorescein-labeled peptide. • 3. Prepare a solution of DDE at a concentration that will be approximately 5-10 fold greater than the expected KD. For the described assay an 8 μM concentration of DDE was prepared. • 4. Mix equal volumes of the DDE solution with the 40 nM peptide solution. • 5. Prepare serial dilutions of DDE in a solution consisting of the binding buffer with 0.01% Tween20 and 20 nM of the 5-carboxyfluorescein-labeled peptide. • 6. Make dilutions as shown in the following table in a Labsystems 384-well microplate and mix by repeated aspiration and dispensing of the solution into the wells. • 7. Centrifuge the plate at 2000 RPM for 5 minutes to remove air pockets in the wells. • 8. Read in Tecan Polarion Plate Reader at 485 nm to obtain the anisotropy value.
The anisotropy (in mP—millipolarization units) vs the logarithm of the concentration (micromoles/liter) of the receptor concentration is graphed. The dissociation constant is obtained at the midpoint of the curve whose extrema are Afree and Abound where Afree is the anisotropy of the free peptide and Abound is the anisotropy of the fully bound peptide. The theory, methods of operation and mathematical analysis is described in, for example, the following reference: Fluorescence Polarization Technical Resource Guide Technical Resource Guide 4th Edn. Invitrogen Corporation•501 Charmany Drive•Madison, Wis. 53719 USA. Particularly, the mathematical analysis of the data and obtaining binding constants is described in Chapter 8: Analysis of FP Binding Data pp 8-2-8-7.

Sequence of DDE (fibrin-derived polypeptide) (P02671 124-216): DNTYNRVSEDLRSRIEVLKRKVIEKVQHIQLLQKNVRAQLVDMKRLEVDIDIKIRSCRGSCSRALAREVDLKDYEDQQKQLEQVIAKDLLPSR
Sequence of DDE (fibrin-derived polypeptide) (P02675 164-491): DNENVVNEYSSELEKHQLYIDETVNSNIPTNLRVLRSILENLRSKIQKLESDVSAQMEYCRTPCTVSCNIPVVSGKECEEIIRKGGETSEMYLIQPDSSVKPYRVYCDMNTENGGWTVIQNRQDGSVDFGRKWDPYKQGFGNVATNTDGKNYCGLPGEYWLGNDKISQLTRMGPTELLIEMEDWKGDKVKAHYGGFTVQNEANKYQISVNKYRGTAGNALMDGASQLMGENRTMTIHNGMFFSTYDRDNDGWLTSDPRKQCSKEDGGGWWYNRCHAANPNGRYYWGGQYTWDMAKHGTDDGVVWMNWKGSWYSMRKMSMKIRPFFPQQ
Sequence of DDE (fibrin-derived polypeptide) (P02679 114-432): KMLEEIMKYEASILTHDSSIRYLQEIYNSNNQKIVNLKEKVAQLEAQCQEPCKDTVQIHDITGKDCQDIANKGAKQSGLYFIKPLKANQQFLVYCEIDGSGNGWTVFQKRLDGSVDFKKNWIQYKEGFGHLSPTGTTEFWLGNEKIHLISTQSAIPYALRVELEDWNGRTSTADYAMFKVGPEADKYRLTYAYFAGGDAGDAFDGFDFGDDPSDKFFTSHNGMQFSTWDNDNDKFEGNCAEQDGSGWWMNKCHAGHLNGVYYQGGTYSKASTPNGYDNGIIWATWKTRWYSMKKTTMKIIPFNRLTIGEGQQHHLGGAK
Sequence of DDE (fibrin-derived polypeptide) (P02671 36-97): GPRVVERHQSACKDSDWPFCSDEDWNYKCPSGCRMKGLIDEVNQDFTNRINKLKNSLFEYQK
Sequence of DDE (fibrin-derived polypeptide) (P02675 45-152): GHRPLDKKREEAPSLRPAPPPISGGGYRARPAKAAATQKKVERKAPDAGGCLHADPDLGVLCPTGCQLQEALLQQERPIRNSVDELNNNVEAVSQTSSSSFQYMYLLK
Sequence of DDE (fibrin-derived polypeptide) (P02679 27-88): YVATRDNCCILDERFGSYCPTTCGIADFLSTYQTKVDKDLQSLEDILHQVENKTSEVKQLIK

CC(=O)N[C@@H](CO)C(=O)NCC(=O)N[C@@H](CO)C(=O)NCC(=O)N[C@@H](CO)C(=O)NCC(=O)N[C@@H](CO)C(=O)NCC(=O)N[C@@H](Cc1c[nH]c2ccccc12)C(=O)N[C@@H](CCC(N)=O)C(=O)N1CCC[C@H]1C(=O)N[C@H]1CSSC[C@@H](C(=O)N[C@@H](Cc2c[nH]c3ccccc23)C(=O)N[C@@H](CC(=O)O)C(=O)N2CCC[C@H]2C(=O)NCC(=O)NCC(=O)NCC(=O)N[C@@H](CCCCNC(=O)c2ccc3c(c2)C(=O)OC32c3ccc(O)cc3Oc3cc(O)ccc32)C(N)=O)NC(=O)[C@H](Cc2ccccc2)NC(=O)[C@H]([C@@H](C)O)NC(=O)[C@H](Cc2c[nH]c3ccccc23)NC(=O)[C@H](CO)NC(=O)[C@H](CCC(=O)O)NC(=O)[C@H](C)NC(=O)[C@@H]2CCCN2C1=O [Seq040-CF5] (Ac-SGSGSGSGWQPCPAESWTFCWDPGGGK(5FAM)-NH2; disulfide 12-20)
Kd: 0.53 µM

CC(=O)N[C@@H](CCCNC(=N)N)C(=O)N[C@@H](CCCNC(=N)N)C(=O)NCC(=O)NCC(=O)N[C@@H](Cc1c[nH]c2ccccc12)C(=O)N[C@@H](CCC(N)=O)C(=O)N1CCC[C@H]1C(=O)N[C@H]1CSSC[C@@H](C(=O)N[C@@H](Cc2c[nH]c3ccccc23)C(=O)N[C@@H](CC(=O)O)C(=O)N2CCC[C@H]2C(=O)NCC(=O)NCC(=O)NCC(=O)N[C@@H](CCCCNC(=O)c2ccc3c(c2)C(=O)OC32c3ccc(O)cc3Oc3cc(O)ccc32)C(N)=O)NC(=O)[C@H](Cc2ccccc2)NC(=O)[C@H]([C@@H](C)O)NC(=O)[C@H](Cc2c[nH]c3ccccc23)NC(=O)[C@H](CO)NC(=O)[C@H](CCC(=O)O)NC(=O)[C@H](C)NC(=O)[C@@H]2CCCN2C1=O [Seq046-CF5] (Ac-RRGGWQPCPAESWTFCWDPGGGK(5FAM)-NH2; disulfide 8-16)
Kd: 0.22 µM

CC(=O)N[C@@H](CCCCN)C(=O)N[C@@H](CCCCN)C(=O)NCC(=O)N[C@@H](Cc1c[nH]c2ccccc12)C(=O)N[C@@H](CCC(N)=O)C(=O)N1CCC[C@H]1C(=O)N[C@H]1CSSC[C@@H](C(=O)N[C@@H](Cc2c[nH]c3ccccc23)C(=O)N[C@@H](CC(=O)O)C(=O)N2CCC[C@H]2C(=O)NCC(=O)NCC(=O)NCC(=O)N[C@@H](CCCCNC(=O)c2ccc3c(c2)C(=O)OC32c3ccc(O)cc3Oc3cc(O)ccc32)C(N)=O)NC(=O)[C@H](Cc2ccccc2)NC(=O)[C@H]([C@@H](C)O)NC(=O)[C@H](Cc2c[nH]c3ccccc23)NC(=O)[C@H](CO)NC(=O)[C@H](CCC(=O)O)NC(=O)[C@H](Cc2c[nH]c3ccccc23)NC(=O)[C@@H]2CCCN2C1=O [Seq025-CF5] (Ac-KKGWQPCPWESWTFCWDPGGGK(5FAM)-NH2; disulfide 7-15)
Kd: 0.71 µM

CC(=O)N[C@@H](Cc1c[nH]c2ccccc12)C(=O)N[C@@H](CCC(N)=O)C(=O)N1CCC[C@H]1C(=O)N[C@H]1CSSC[C@@H](C(=O)N[C@@H](Cc2c[nH]c3ccccc23)C(=O)N[C@@H](CC(=O)O)C(=O)N2CCC[C@H]2C(=O)NCC(=O)NCC(=O)NCC(=O)N[C@@H](CCCCNC(=O)c2ccc3c(c2)C(=O)OC32c3ccc(O)cc3Oc3cc(O)ccc32)C(N)=O)NC(=O)[C@H](CC2CCCCC2)NC(=O)[C@H]([C@@H](C)O)NC(=O)[C@H](Cc2c[nH]c3ccccc23)NC(=O)[C@H](CO)NC(=O)[C@H](CCC(=O)O)NC(=O)[C@H](C)NC(=O)[C@@H]2CCCN2C1=O [Seq042-CF5, Ac-WQPC*PAESWT-Cha-C*WDPGGGK(CF5)-NH2] (Ac-WQPCPAESWT[Cha]CWDPGGGK(5FAM)-NH2; disulfide 4-12)
Kd: 0.17 µM

CC(=O)N[C@@H](Cc1c[nH]c2ccccc12)C(=O)N[C@@H](CCC(N)=O)C(=O)N1CCC[C@H]1C(=O)N[C@H]1CSSC[C@@H](C(=O)N[C@@H](Cc2c[nH]c3ccccc23)C(=O)N[C@@H](CC(=O)O)C(=O)N2CCC[C@H]2C(=O)NCC(=O)NCC(=O)NCC(=O)N[C@@H](CCCCNC(=O)c2ccc3c(c2)C(=O)OC32c3ccc(O)cc3Oc3cc(O)ccc32)C(N)=O)NC(=O)[C@H](Cc2ccc(F)cc2)NC(=O)[C@H]([C@@H](C)O)NC(=O)[C@H](Cc2c[nH]c3ccccc23)NC(=O)[C@H](CO)NC(=O)[C@H](CCC(=O)O)NC(=O)[C@H](Cc2c[nH]c3ccccc23)NC(=O)[C@@H]2CCCN2C1=O [Seq019-CF5, Ac-WQPC*PWESWT-Ffe4-C*WDPGGGK(CF5)-NH2] (Ac-WQPCPWESWT[Phe(4-F)]CWDPGGGK(5FAM)-NH2; disulfide 4-12)
Kd: 1.02 µM

CC(=O)N[C@@H](CO)C(=O)NCC(=O)N[C@@H](CO)C(=O)NCC(=O)N[C@@H](CO)C(=O)NCC(=O)N[C@@H](CO)C(=O)NCC(=O)N[C@@H](Cc1c[nH]c2ccccc12)C(=O)N[C@@H](CCC(N)=O)C(=O)N1CCC[C@H]1C(=O)N[C@H]1CSSC[C@@H](C(=O)N[C@@H](Cc2c[nH]c3ccccc23)C(=O)N[C@@H](CC(=O)O)C(=O)N2CCC[C@H]2C(=O)NCC(=O)NCC(=O)NCC(=O)N[C@@H](CCCCNC(=O)c2ccc3c(c2)C(=O)OC32c3ccc(O)cc3Oc3cc(O)ccc32)C(N)=O)NC(=O)[C@H](Cc2ccccc2)NC(=O)[C@H]([C@@H](C)O)NC(=O)[C@H](Cc2c[nH]c3ccccc23)NC(=O)[C@H](CO)NC(=O)[C@H](CCC(=O)O)NC(=O)[C@H](Cc2c[nH]c3ccccc23)NC(=O)[C@@H]2CCCN2C1=O [Seq024-CF5] (Ac-SGSGSGSGWQPCPWESWTFCWDPGGGK(5FAM)-NH2; disulfide 12-20)
Kd: 0.47 µM

C[C@@H](O)[C@@H]1NC(=O)[C@H](Cc2c[nH]c3ccccc23)NC(=O)[C@H](CO)NC(=O)[C@H](CCC(=O)O)NC(=O)[C@H](Cc2c[nH]c3ccccc23)NC(=O)[C@@H]2CCCN2C(=O)[C@@H](NC(=O)[C@@H]2CCCN2C(=O)[C@H](CCC(N)=O)NC(=O)[C@H](Cc2c[nH]c3ccccc23)NC(=O)CNC(=O)[C@@H](N)CCCNC(=N)N)CSSC[C@@H](C(=O)N[C@@H](Cc2c[nH]c3ccccc23)C(=O)N[C@@H](CC(=O)O)C(=O)N2CCC[C@H]2C(=O)NCC(=O)NCC(=O)NCC(=O)N[C@@H](CCCCNC(=O)c2ccc3c(c2)C(=O)OC32c3ccc(O)cc3Oc3cc(O)ccc32)C(N)=O)NC(=O)[C@H](Cc2ccccc2)NC1=O [Seq022-CF5] (H-RGWQPCPWESWTFCWDPGGGK(5FAM)-NH2; disulfide 6-14; N-terminus assumed)
Kd: 0.28 µM

CC(=O)NCC(=O)N1CCC[C@H]1C(=O)N1CCC[C@H]1C(=O)NCC(=O)N[C@@H](Cc1c[nH]c2ccccc12)C(=O)N[C@@H](CCC(N)=O)C(=O)N1CCC[C@H]1C(=O)N[C@H]1CSSC[C@@H](C(=O)N[C@@H](Cc2c[nH]c3ccccc23)C(=O)N[C@@H](CC(=O)O)C(=O)N2CCC[C@H]2C(=O)NCC(=O)NCC(=O)NCC(=O)N[C@@H](CCCCNC(=O)c2ccc3c(c2)C(=O)OC32c3ccc(O)cc3Oc3cc(O)ccc32)C(N)=O)NC(=O)[C@H](Cc2ccccc2)NC(=O)[C@H]([C@@H](C)O)NC(=O)[C@H](Cc2c[nH]c3ccccc23)NC(=O)[C@H](CO)NC(=O)[C@H](CCC(=O)O)NC(=O)[C@H](C)NC(=O)[C@@H]2CCCN2C1=O [Seq034-CF5] (Ac-GPPGWQPCPAESWTFCWDPGGGK(5FAM)-NH2; disulfide 8-16)
Kd: 0.31 µM

C[C@@H]1NC(=O)[C@@H]2CCCN2C(=O)[C@@H](NC(=O)[C@@H]2CCCN2C(=O)[C@H](CCC(N)=O)NC(=O)[C@H](Cc2c[nH]c3ccccc23)NC(=O)[C@@H](N)CCCNC(=N)N)CSSC[C@@H](C(=O)N[C@@H](Cc2c[nH]c3ccccc23)C(=O)N[C@@H](CC(=O)O)C(=O)N2CCC[C@H]2C(=O)NCC(=O)NCC(=O)NCC(=O)N[C@@H](CCCCNC(=O)c2ccc3c(c2)C(=O)OC32c3ccc(O)cc3Oc3cc(O)ccc32)C(N)=O)NC(=O)[C@H](Cc2ccccc2)NC(=O)[C@H]([C@@H](C)O)NC(=O)[C@H](Cc2c[nH]c3ccccc23)NC(=O)[C@H](CO)NC(=O)[C@H](CCC(=O)O)NC1=O [Seq056-CF5] (H-RWQPCPAESWTFCWDPGGGK(5FAM)-NH2; disulfide 5-13)
Kd: 0.06 µM
